Measured values taken from patent publication US7166725B2, “Benzo[d]isoxazol-3-ol DAAO inhibitors” (Sepracor Inc., priority 2003, dated 2007).

What was measured:
Purified pig DAAO = Purified pig DAAO (Sus scrofa, UniProt P00371); assay: In vitro measurements of DAAO activity (Amplex Red H2O2 fluorescence; alternative phenylglycine absorbance assay); format: biochemical; conditions: read-out: Inhibition of DAAO, IC50
Experimental: Purified pig DAAO, added to a buffered mixture of 50 mM D-Serine produces H202 in stoichiometric amounts for each D-Serine molecule oxidized. H202 production can be monitored with a commercially available dye Amplex Red, which in the presence of H202, is converted to the fluorescent product resorufin. For each described inhibitor, the fluorescence was also measured during additions of 80 μM H202 in the absence of DAAO, to control for artifactual inhibition of the dye conversion, and to quantify the amount of H202 produced. In an alternative assay of DAAO activity, the purified pig DAAO is added to buffered mixture of 1 mM phenylglycine in the presence of compounds. The activity of DAAO is monitored spectrophotometrically by its enzymatic conversion of phenylglycine to benzoylformic acid with optical absorption at 252 nm.
Inhibitors of DAAO's enzymatic cycle were serially diluted to reduce the level of inhibition. The parameters of a non-linear equation were adjusted to fit the resulting series of inhibition levels to extrapolate the concentration of compound where 50% inhibition is achieved (IC50). These numbers are averaged for the number (n) of independent measurements (on separate days) of the inhibition.

[1] = molecular target: T1, D-Serine's binding site on the NMDA receptor (Rattus norvegicus, UniProt P35439); assay: NMDA receptor affinity, [3H]MDL105,519 radioligand binding, rat cerebral cortex membranes; conditions: tested at 100 μM, read-out: inhibition of specific [3H]MDL105,519 binding
T1 construct: membranes prepared from rat cerebral cortex; from tissue; host or cells: rat cerebral cortex membranes
Experimental: To measure the affinity of the compounds reported herein for D-Serine's binding site on the NMDA receptor (also known as the “Glycine site” or the “strychnine-insensitive glycine site”), a radioligand-binding assay was performed with membranes prepared from rat cerebral cortex. The radioactive ligand was [3H]MDL105,519. The amount of radioactivity displaced by the compounds was assessed by scintillation counting. Non-specific binding is accounted for in the presence of 1 mM Glycine. Affinities are calculated from the values of % inhibition of specific [3H]MDL105,519 binding by the test compounds.

[2] = Rat brain uptake, left carotid artery perfusion; format: in vivo; conditions: 30 seconds perfusion in phosphate buffered saline pH 7.4; N of 4 rats
Excerpt: Experiments that evaluate the rat brain penetration of test compounds use a perfusion system where the left carotid artery is cannulated and the branch arteries are tied off. The test compound plus internal controls are perfused for 30 seconds into the left hemisphere in phosphate buffered saline at pH 7.4. The internal controls are atenolol (with low brain uptake) and antipyrine (with high brain uptake). After a 30 second washout with perfusate, the brain is removed surgically. The left hemisphere is homogenized; test compounds (plus internal controls) are extracted from brain homogenate, and analyzed using LC/MS/MS to determine the concentration of test compound and internal controls in the brain.

Purified pig DAAO, sequence (P00371 whole entry): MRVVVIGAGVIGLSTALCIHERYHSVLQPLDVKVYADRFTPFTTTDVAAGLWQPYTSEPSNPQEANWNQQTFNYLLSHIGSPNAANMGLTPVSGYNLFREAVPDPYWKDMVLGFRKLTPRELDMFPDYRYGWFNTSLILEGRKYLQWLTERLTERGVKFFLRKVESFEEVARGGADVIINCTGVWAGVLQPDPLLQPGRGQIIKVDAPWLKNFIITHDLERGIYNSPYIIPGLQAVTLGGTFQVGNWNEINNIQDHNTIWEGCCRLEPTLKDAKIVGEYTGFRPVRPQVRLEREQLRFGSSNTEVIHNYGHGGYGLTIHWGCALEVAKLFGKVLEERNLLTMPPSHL

Row | SMILES | IC50 (Purified pig DAAO) [µM] | other results
1 | Oc1noc2cccc(F)c12 | < 10 | –
2 | Oc1cccc2onc(O)c12 | > 100 | –
3 | COc1cccc2onc(O)c12 | < 100 | –
4 | Oc1noc2cc(F)ccc12 | < 1 | –
5 | Oc1ccc2c(O)noc2c1 | < 10 | –
6 | COc1ccc2c(O)noc2c1 | < 10 | –
7 | Oc1noc2c(Cl)cccc12 | > 100 | –
8 | Oc1noc2c(F)cccc12 | < 100 | –
9 | Oc1noc2c(O)cccc12 | < 100 | –
10 | Oc1noc2ccc(Cl)cc12 | < 1 | –
11 | Oc1ccc2onc(O)c2c1 | > 100 | –
12 | Oc1noc2ccc(I)cc12 | < 10 | –
13 | COc1ccc2onc(O)c2c1 | < 10 | –
14 | Cc1ccc2onc(O)c2c1 | < 10 | –
15 | Oc1noc2ccc(CCc3ccccc3)cc12 | < 100 | –
16 | COc1cccc2c(O)noc12 | < 100 | –
17 | Oc1noc2ccc(OCc3ccccc3)cc12 | < 10 | –
18 | Oc1noc2ccc(F)cc12 | < 1 | –
19 | Oc1noc2ccccc12 | < 1 | –
20 | O=C(Nc1ccc2c(O)noc2c1)OCc1ccccc1 | > 100 | –
21 | O=C(Nc1ccc2onc(O)c2c1)OCc1ccccc1 | > 100 | –
22 | Cc1cccc2c(O)noc12 | > 100 | –
23 | Oc1noc2cc(OCc3ccccc3)ccc12 | > 100 | –
24 | O=C(O)c1cc2ccccc2[nH]1 [INDOLE-2-CARBOXYLIC ACID, reference compound] | < 10 | inhibition at 100 µM [1]: 77%
25 | O=C(O)c1ccc[nH]1 [PYRROLE-2-CARBOXYLIC ACID, reference compound] | < 10 | –
26 | Oc1noc2cc(Cl)ccc12 [drawing 38] | < 0.1 | –
27 | Oc1noc2cc(Cl)ccc12 [drawing 47] | – | inhibition at 100 µM [1]: < 10%
28 | Cc1ccc2c(O)noc2c1 [drawing 48] | – | Rat Brain Uptake Rate [2]: 199 pmol/g brain/sec
29 | Oc1noc2cc(Cl)ccc12 [drawing 49] | – | Rat Brain Uptake Rate [2]: 162 pmol/g brain/sec

Further lines, with some results ahead:

Row | IC50 (Purified pig DAAO) [µM] | SMILES | other results
30 | < 0.1 | Oc1noc2cc(Br)c(Br)cc12 | –
31 | < 0.1 | Oc1noc2cc(Cl)c(Cl)cc12 | –
32 | < 0.1 | Oc1noc2cc(Cl)c(Br)cc12 | –
33 | < 0.1 | Cc1cc2onc(O)c2cc1Br | –
34 | < 0.1 | Oc1noc2cc(Br)c(Cl)cc12 | –
35 | < 0.1 | Cc1cc2onc(O)c2cc1Cl | –
36 | < 0.1 | Cc1cc2onc(O)c2cc1I | –
37 | < 1 | Oc1noc2cc(Br)ccc12 | –
38 | < 100 | N#Cc1ccc2onc(O)c2c1 | –
39 | < 1 | Oc1noc2ccc(Br)cc12 | –
40 | < 1 | Cc1ccc2c(O)noc2c1 [drawing 22] | –
